Data taken from patent US9695155B2, “Herbicidal substituted pyrimidinyloxy benzene compounds” (E. I. DU PONT DE NEMOURS AND COMPANY, priority 2013, dated 2017).

Key:
field violet = experiment: Test D preemergence; assay type: in vivo, Viola arvensis
Text: (§1) Seeds of plant species selected from bluegrass (annual bluegrass, Poa annua), blackgrass (Alopecurus myosuroides), canarygrass (littleseed canarygrass, Phalaris minor), chickweed (common chickweed, Stellaria media), galium (catchweed bedstraw, Galium aparine), bromegrass, downy (downy bromegrass, Bromus tectorum), field poppy (Papaver rhoeas), field violet (Viola arvensis), green foxtail (Setaria viridis), deadnettle (henbit deadnettle, Lamium amplexicaule), Italian ryegrass (Lolium multiflorum), kochia (Kochia scoparia), lambsquarters (Chenopodium album), oilseed rape (Brassica napus), pigweed (Amaranthus retroflexus), chamomile (scentless chamomile, Matricaria inodora), Russian thistle (Salsola kali), speedwell (bird's-eye speedwell, Veronica persica), spring barley (Hordeum vulgare), spring wheat (Triticum aestivum), wild buckwheat (Polygonum convolvulus), wild mustard (Sinapis arvensis), wild oat (Avena fatua), wild radish (Raphanus raphanistrum), windgrass (Apera spica-venti), winter barley (Hordeum vulgare), and winter wheat (Triticum aestivum) were planted into a silt loam soil and treated preemergence with test chemicals formulated in a non-phytotoxic solvent mixture which included a surfactant.
(§2) At the same time, these species were planted in pots containing Redi-Earth® planting medium (Scotts Company, 14111 Scottslawn Road, Marysville, Ohio 43041) comprising spaghnum peat moss, vermiculite, wetting agent and starter nutrients and treated with postemergence applications of the test chemicals formulated in the same manner. Plants ranged in height from 2 to 18 cm (1- to 4-leaf stage). Treated plants and controls were maintained in a controlled growth environment for 7 to 21 days after which time all species were compared to controls and visually evaluated. Plant response ratings, summarized in Table D, are based on a scale of 0 to 100 where 0 is no effect and 100 is complete control. A dash (-) response means no test result.

deadnettle = experiment: Test D preemergence; assay type: in vivo, Lamium amplexicaule
Text: as §1, §2

lambsquarters [1] = experiment: Test D preemergence; assay type: in vivo, Chenopodium album
Text: as §1, §2

blackgrass = experiment: Test D postemergence; assay type: in vivo, Alopecurus myosuroides
Text: as §1, §2

canarygrass = experiment: Test D postemergence; assay type: in vivo, Phalaris minor
Text: as §1, §2

galium = experiment: Test D postemergence; assay type: in vivo, Galium aparine
Text: as §1, §2

green foxtail = experiment: Test D postemergence; assay type: in vivo, Setaria viridis
Text: as §1, §2

kochia = experiment: Test D postemergence; assay type: in vivo, Kochia scoparia
Text: as §1, §2

lambsquarters [2] = experiment: Test D postemergence; assay type: in vivo, Chenopodium album
Text: as §1, §2

oilseed rape = experiment: Test D postemergence; assay type: in vivo, Brassica napus
Text: as §1, §2

wild oat = experiment: Test D postemergence; assay type: in vivo, Avena fatua
Text: as §1, §2

[3] = 16 g ai/ha, scale 0 (no effect) to 100 (complete control)
[4] = 31 g ai/ha, scale 0 to 100 (0 no effect, 100 complete control)
[5] = 62 g ai/ha, scale 0 to 100 (0 no effect, 100 complete control)
[6] = 125 g ai/ha, scale 0 to 100 (0 no effect, 100 complete control)
[7] = 250 g ai/ha, scale 0 to 100 (0 no effect, 100 complete control)

With `Clc1cnc(Oc2ccccc2-n2cc(Cl)cn2)nc1` [Compound 3] the “Plant response rating, Field Violet” value (field violet; [3]) was 40, the “Plant response rating, Field Violet” value (field violet; 31 g ai/ha, scale 0-100) was 80 and the “Plant response rating, Field Violet” value (field violet; 62 g ai/ha, scale 0-100) was 80. For the same molecule, the “Plant response rating, Field Violet” value (field violet; 125 g ai/ha, scale 0-100) was 85, the “Plant response rating, Field Violet” value (field violet; 250 g ai/ha, scale 0-100) was 85 and the “Plant response rating, Deadnettle” value (deadnettle; [3]) was 30. For the same molecule, the “Plant response rating, Deadnettle” value (deadnettle; 31 g ai/ha, scale 0-100) was 30, the “Plant response rating, Deadnettle” value (deadnettle; 62 g ai/ha, scale 0-100) was 40 and the “Plant response rating, Deadnettle” value (deadnettle; 125 g ai/ha, scale 0-100) was 40. The “Plant response rating, Deadnettle” value (deadnettle; 250 g ai/ha, scale 0-100) was 50, the “Plant response rating, Lambsquarters” value (lambsquarters [1]; [3]) was 0 and the “Plant response rating, Lambsquarters” value (lambsquarters [1]; 31 g ai/ha, scale 0-100) was 0. The “Plant response rating, Lambsquarters” value (lambsquarters [1]; 62 g ai/ha, scale 0-100) was 0, the “Plant response rating, Lambsquarters” value (lambsquarters [1]; 125 g ai/ha, scale 0-100) was 25 and the “Plant response rating, Lambsquarters” value (lambsquarters [1]; 250 g ai/ha, scale 0-100) was 50. The “Plant response rating, Blackgrass” value (blackgrass; Postemergence, 62 g ai/ha, scale 0 to 100 (0 no effect, 100 complete control)) was 0, the “Plant response rating, Blackgrass” value (blackgrass; Postemergence, 31 g ai/ha, scale 0 to 100 (0 no effect, 100 complete control)) was 0 and the “Plant response rating, Blackgrass” value (blackgrass; Postemergence, 125 g ai/ha, scale 0 to 100 (0 no effect, 100 complete control)) was 0. The “Plant response rating, Blackgrass” value (blackgrass; Postemergence, 250 g ai/ha, scale 0 to 100 (0 no effect, 100 complete control)) was 10, the “Plant response rating, Blackgrass” value (blackgrass; postemergence, 16 g ai/ha, scale 0 to 100, 0 no effect, 100 complete control) was 70 and the “Plant response rating, Canarygrass” value (canarygrass; 16 g ai/ha, scale 0-100) was 30. For the same molecule, the “Plant response rating, Canarygrass” value (canarygrass; [4]) was 0, the “Plant response rating, Canarygrass” value (canarygrass; [5]) was 0 and the “Plant response rating, Canarygrass” value (canarygrass; [6]) was 0. The “Plant response rating, Canarygrass” value (canarygrass; [7]) was 10, the “Plant response rating, Galium” value (galium; 16 g ai/ha, scale 0-100) was 40 and the “Plant response rating, Galium” value (galium; [4]) was 30. For the same molecule, the “Plant response rating, Galium” value (galium; [5]) was 40, the “Plant response rating, Galium” value (galium; [6]) was 45 and the “Plant response rating, Galium” value (galium; [7]) was 75. For the same molecule, the “Plant response rating, Foxtail, Green” value (green foxtail; 16 g ai/ha, scale 0-100) was 10, the “Plant response rating, Foxtail, Green” value (green foxtail; [4]) was 0 and the “Plant response rating, Foxtail, Green” value (green foxtail; [5]) was 0. The “Plant response rating, Foxtail, Green” value (green foxtail; [6]) was 0, the “Plant response rating, Foxtail, Green” value (green foxtail; [7]) was 10 and the “Plant response rating, Kochia” value (kochia; 16 g ai/ha, scale 0-100) was 20. The “Plant response rating, Kochia” value (kochia; [4]) was 5, the “Plant response rating, Kochia” value (kochia; [5]) was 5 and the “Plant response rating, Kochia” value (kochia; [6]) was 25. The “Plant response rating, Kochia” value (kochia; [7]) was 55, the “Plant response rating, Lambsquarters” value (lambsquarters [2]; 16 g ai/ha, scale 0-100) was 25 and the “Plant response rating, Lambsquarters” value (lambsquarters [2]; [4]) was 20. For the same molecule, the “Plant response rating, Lambsquarters” value (lambsquarters [2]; [5]) was 60, the “Plant response rating, Lambsquarters” value (lambsquarters [2]; [6]) was 80 and the “Plant response rating, Lambsquarters” value (lambsquarters [2]; [7]) was 85. For the same molecule, the “Plant response rating, Oilseed Rape” value (oilseed rape; 16 g ai/ha, scale 0-100) was 90, the “Plant response rating, Oilseed Rape” value (oilseed rape; [4]) was 80 and the “Plant response rating, Oilseed Rape” value (oilseed rape; [5]) was 80. The “Plant response rating, Oilseed Rape” value (oilseed rape; [6]) was 90, the “Plant response rating, Oilseed Rape” value (oilseed rape; [7]) was 95 and the “Plant response rating, Oat, Wild” value (wild oat; 16 g ai/ha, scale 0-100) was 70. For the same molecule, the “Plant response rating, Oat, Wild” value (wild oat; [4]) was 0, the “Plant response rating, Oat, Wild” value (wild oat; [5]) was 0 and the “Plant response rating, Oat, Wild” value (wild oat; [6]) was 0. The “Plant response rating, Oat, Wild” value (wild oat; [7]) was 0.
